“And” between values parts separate entries of the source, which are not always exact repeats. Equal entries are not always repeated. Where two headings read alike, the source gives them in different places.
Assays:
[1] = tested on: P. falciparum; assay: Growth inhibition against P. falciparum; assay type: cell-based
[2] = tested on: P. falciparum had1 mutant strain; assay type: cell-based; settings: for sensitivity in had1+HAD1-GFP strain: mutant supplied with wild-type copy of HAD1; for resistance of had1 parasites compared with wild-type 3D7: shift of IC50 curve
[3] = tested on: DXR; settings: versus substrate DOXP and cofactor NADPH; cited from earlier work
[4] = tested on: Mtb; settings: footnote a: Jackson et al. 2014, cited from earlier work
[5] = tested on: P. falciparum; settings: Table 6, footnote b: Edwards et al. 2017; read-out: P.f. IC50; cited from earlier work
[6] = molecular target: T1, P. falciparum DXR (Plasmodium falciparum, UniProt Q8IKG4); settings: read-out: Pf DXR IC50; Table 2, footnote a: Gießmann et al. 2008; cited from earlier work
T1 sequence (Q8IKG4 73-488): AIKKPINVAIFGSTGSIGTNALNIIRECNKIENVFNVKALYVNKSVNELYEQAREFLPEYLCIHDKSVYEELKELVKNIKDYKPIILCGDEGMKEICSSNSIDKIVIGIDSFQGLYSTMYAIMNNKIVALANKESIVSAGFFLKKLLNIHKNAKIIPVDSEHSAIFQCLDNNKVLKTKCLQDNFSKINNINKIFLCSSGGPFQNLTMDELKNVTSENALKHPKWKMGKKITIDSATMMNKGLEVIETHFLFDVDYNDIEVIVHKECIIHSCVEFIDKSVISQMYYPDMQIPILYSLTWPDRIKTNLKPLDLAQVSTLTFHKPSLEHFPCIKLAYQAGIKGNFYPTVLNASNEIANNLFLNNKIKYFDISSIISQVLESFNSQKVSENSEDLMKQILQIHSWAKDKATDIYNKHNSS

[7] = tested on: HepG2 cells; assay: HepG2 cell inhibition (cytotoxicity) assay; assay type: cell-based; settings: for IC50: Homo sapiens
Description: For cytotoxicity assays, HepG2 cells (ATCC HB-8065) were grown in DMEM supplemented with 4 mM L-glutamine (Gibco #11966-025) with either 4.5 g/L D-glucose or 1.8 g/L galactose as carbon source. Cells were trypsinized, resuspended in the respective medium (DMEM/glutamine/glucose or DMEM/glutamine/galactose) to 4×10^5 cells/mL and 50 μL/well transferred to flat-bottom white opaque tissue culture plates (Falcon #353296) containing 50 μL/well of the respective medium with test compound. Compound concentrations were two-fold dilutions ranging from 50 μM to 0.049 μM as well as the drug-free DMSO-only control. All concentrations were tested in duplicate for each carbon source. After 24 h incubation at 5% CO2, 37° C., 10 μL/well of Celltiter-Glo reagent (Promega #G9241) was added and luminescence recorded after 20 min incubation in the dark.

[8] = Metabolic stability in mouse liver microsomes; assay type: in vitro ADME; settings: pH 7.4
Description: (§1) In this protocol, the metabolic stability of compounds at 1 μM was determined in mouse liver microsomes (MLM) and mouse plasma. For microsomal stability each test compound was incubated in an aqueous reaction mixture consisting of 0.25 […], 1.2 mM NADPH, 3.3 mM MgCl2, and 100 mM potassium phosphate buffer (pH 7.4). For plasma stability each test compound was incubated in mouse plasma (VWR). After incubation at 37° C. a 50 μL aliquot of the reaction was transferred to 200 μL ice cold acetonitrile containing internal standard (Enalapril, 100 ng/mL). The quenched reaction mixtures were centrifuged at 3200 rpm for 5 min, and 100 μL of the supernatant were transferred to 96-well plate and analyzed by LC-MS/MS using an Applied Biosystems-Sciex API 4000. Analyte/internal standard peak area ratios were used to evaluate stability. […] An Amour C18 column (2.1×30 mm, 5 μm; Analytical Sales and Services, Pompton Plains, N.J.) was used for chromatographic separation. Mobile phases were 0.1% formic acid, 1 mM triethylamine in water and acetonitrile with a flow rate of 0.35 mL/min. The starting phase was 0% acetonitrile increased to 100% acetonitrile over 3 minutes. Peak areas were integrated using Analyst Software (AB Sciex, Foster City, Calif.).

[9] = tested on: P. berghei ANKA; assay: P. berghei-infected mouse model of malaria; assay type: in vivo; settings: for luciferin signal intensity (parasitemia): read seven days after infection
Description: Groups of mice were infected with luciferase-based blood-stage P. berghei ANKA by intraperitoneal (ip) injection. […] Seven days after infection, intensity of the luciferin signal was measured, correlating to the parasitemia burden.

[10] = in vitro; assay type: in vitro ADME; settings: mouse plasma, compound 1 μM, 37° C.; read-out: Plasma stability (t1/2)
Description: as §1

[11] = tested on: MEP pathway metabolites; assay: MEP pathway metabolite assay (LC-MS/MS); assay type: cell-based, P. falciparum; settings: 3D7, 65 nM (5× IC50), 10 h
From the text: Thus, a mass spectrometry-based method was used to quantify the MEP metabolites from untreated P. falciparum versus parasites treated with this compound (FIG. 4). These metabolites include the DXR substrate (1-deoxy-D-xylulose 5-phosphate, DOXP), the DXR product (2-C-methylerythritol 4-phosphate, MEP), and the downstream metabolites (4-diphosphocytidyl-2-C-methylerythritol (CDP-ME) and 2-C-methyl-D-erythritol 2,4-cyclopyrophosphate (MEcPP)).
Cultures were lysed with 5% saponin, the parasite pellets washed with 1× phosphate-buffered saline (PBS), and the pellets stored at −80° C. […]
For LC separation, a Luna-NH2 column (3 um, 150×2 mm, Phenomenex) was used flowing at 0.4 mL/min. […] Metabolites were detected using MRM transitions that were previously optimized using standards. […] For quantification, an external standard curve was prepared using a series of standard samples containing different concentrations of metabolites and fixed concentration of the internal standard. […]

[12] = In vivo exposure study in mice; parameters: species or system Swiss Webster mice
Description: We designed a compound exposure study to determine plasma concentration of 12a under similar conditions to the efficacy study.
Animal care and all procedures were conducted at Charles River Laboratories (Wilmington, Mass.) and performed in accordance with the National Institutes of Health Guide for the Care and Use of Laboratory Animals and approved by the institutional animal care and use committee. […] The suspension was administered to unfasted female Swiss Weber mice (n=3) at 20 mg/kg i.p. Plasma samples (10 μL) were removed at 0.25, 0.5, 1, 2, 4, 6 and 8 h and stored at −80° C. Plasma samples were added to ice cold acetonitrile containing the internal standard, glafenine, as appropriate to bring samples into the standard curve range (50-10,000 ng/ml), then centrifuged for 5 minutes at 3200 rpm and the supernatant transferred to a 96-well sample plate for analysis by liquid chromatography-tandem mass spectrometry. The MRM transitions for glafenine and 12a were m/z: 370.9>296.9 and 180.075>119.9, respectively. A Synergi 4 μm Hydro-RP column (250×4.6 mm, 80 Å) was used for chromatographic separation. Mobile phases were 0.1% formic acid in water and acetonitrile with a flow rate of 1.2 mL/min. The starting phase was 0% acetonitrile for 3 minutes, increased to 60% acetonitrile over 6 minutes. Peak areas were integrated using Analyst Software (AB Sciex, Foster City, Calif.).

[13] = molecular target: T1, P. falciparum DXR; assay: Inhibition of P. falciparum DXR enzyme; assay type: biochemical; settings: read-out: P. falciparum DXR IC50
[14] = Plasmodium falciparum; Table 4, growth inhibition; read-out: Pf IC50
[15] = Plasmodium falciparum; read-out: P. falciparum growth IC50
[16] = mouse liver microsomes, compound 1 μM, 37° C., read-out: Metabolic stability MLM (t1/2)

`O=CN(O)CCCP(=O)(O)O` [Fosmidomycin, reference compound] showed an IC50 ([1]; Plasmodium falciparum; Table 3, diethyl phosphonate analogs; read-out: P.f. IC50) of 0.175 µg/mL, an IC50 [1, 14] of 854 nM and an IC50 [1, 15] of 854 nM. The “resistance of had1 parasites compared with wild-type” value ([2]; in words) was “resistant” and the “binding mode to DXR” value [3] was “competitively with substrate DOXP and noncompetitively with cofactor NADPH”.

For `CC(=O)N(O)C/C=C/P(=O)(O)O` [Compound 2], the “Mtb MIC99 Gast/Fe” value ([4]; minimal media (GAST-Fe)) is listed as 150^a μg/mL, the “Mtb MIC99 7H9” value ([4]; rich media (7H9)) is listed as >200^a μg/mL and the IC50 [5] is listed as 203 nM. For the same compound, the IC50 [6] was 18 nM.

`CC(C)(C)C(=O)OCOP(=O)(/C=C/CN(O)C=O)OCOC(=O)C(C)(C)C` [Compound 18a, [({[(2,2-dimethylpropanoyl)oxy]methoxy}[(1E)-3-(N-hydroxyformamido)prop-1-en-1-yl]phosphoryl)oxy]methyl 2,2-dimethylpropanoate] gave an IC50 ([7]; HepG2, Table 5, cytotoxicity, read-out: HepG2 IC50) of over 50000 nM, an IC50 [1, 14] of 13 nM and an IC50 [1, 15] of 13 nM. For the same compound, the “sensitivity in had1+HAD1-GFP strain” value [2] was “restored”, the “resistance of had1 parasites compared with wild-type 3D7” value [2] was 2.5 fold and the half-life at 1 μM ([8]; mouse, microsomes) was under 5 min. For the same compound, the half-life [8, 16] was under 5 min, the “drop in luciferin signal intensity compared to vehicle” value ([9]; 20 mg/kg i.p.) was 3 log and the “luciferin signal intensity (parasitemia)” value ([9]; 20 mg/kg i.p. daily for five days) was 2.87×10^3. For the same compound, the “luciferin signal intensity (parasitemia)” value ([9]; 50 mg/kg i.p. daily for five days) was 2.34×10^3, the half-life at 1 μM [10] was under 5 min and the “DOXP levels, treated vs untreated parasites” value [11] was “did not show significant difference”. The “levels of metabolites downstream of DXR, treated vs untreated parasites” value ([11]; MEP, CDP-ME, MEcPP) was “reduced levels” and the “conversion of prodrug to 12a in vivo” value ([12]; 20 mg/kg i.p., Swiss Webster mice) was “rapidly converted to 12a”.

In the case of `O=CN(O)C/C=C/P(=O)([O-])O.[Na+]` [Compound 12a, Sodium hydrogen [(1E)-3-(N-hydroxyformamido)prop-1-en-1-yl]phosphonate], the “SI^Pf Selectivity Index for P. falciparum” value ([7]; HepG2 IC50/P.falciparum IC50) is reported as 2632, the IC50 ([7]; HepG2, read-out: HepG2 IC50) is reported as over 50000 nM and the IC50 ([1]; Plasmodium falciparum, read-out: P. falciparum growth IC50) is reported as 19 nM. For the same compound, the IC50 ([1]; Plasmodium falciparum, read-out: Pf IC50) was 19 nM, the IC50 [13] was 92 nM and the “sensitivity in had1+HAD1-GFP strain” value [2] was “restored”. For the same compound, the “resistance of had1 parasites compared with wild-type 3D7” value [2] was 3.4 fold, the half-life at 1 μM [8, 16] was over 60 min and the half-life at 1 μM [10] was over 120 min. For the same compound, the “plasma concentration at 8 h relative to Pf IC50 of 18a in vitro” value ([12]; after 18a 20 mg/kg i.p.) was “approximately 200 fold” and the concentration at 8 h ([12]; female, Swiss Webster, mouse, in vivo, 20 mg/kg, read-out: plasma concentration of 12a at 8 h) was 485 ng/mL and 2.8 µM.
